Where two headings read alike, the source gives them in different places.
Legend:
[1] = test system: mitochondria-associated CA5; test: Binding to CA5
[2] = test system: MaTu human mammary carcinoma xenograft; conditions: for tumors showing signs of re-growth: ˜3 months after cessation, 10 mice per group; for animals remained tumor-free: ˜90 days after cessation
Method: Anti-MN antibodies were conjugated to cytotoxic small molecules using protocols that are known in the art (e.g., Liu, et al., Proc. Natl. Acad. Sci. 93:8618-8623, 1996). Human mammary xenograft, MaTu cells were maintained as adherent cultures in RPMI supplemented with 10% FBS. Ncr nude mice (8-12 weeks of age) were inoculated subcutaneously in the right flank with 5×10^6 cells in 0.1 mL of 80% matrigel/20% HBSS. When tumors reached an average size of ˜180 mg (6 days), treatment was initiated. Monoclonal antibodies conjugated to cytotoxic small molecules were administered i.v. once every four days (Q4Dx3) at a dose of 10 mg/kg. Control mice were treated with PBS or an unconjugated monoclonal antibody. Daily examinations into the health status of each animal were conducted. Each experimental group consisted of 10 mice and the dosing volume was 0.1 mL/10 g body weight. The length and width of each tumor was measured by using an electronic caliper 2-3 times per week and tumor weights (mg) were calculated based on the formula of [length (mm)×width (mm)^2]/2. All data, including daily observations, obtained throughout the course of the study were documented. Tumor growth inhibition (TGI) was calculated as 1−T/C×100, where T=final tumor weights from a treated group, and C=final tumor weights from the control group.
The in vivo anti-tumor effect of 3ee9/MMAE was examined in 6 different human xenograft tumor models. These models were established through subcutaneous implantation of human tumor cells into female athymic NCr (nu/nu) mice (Taconic, N.Y.). The human tumor xenograft models evaluated included the MaTu human mammary carcinoma model, the HT-29 and Colo-205 human colo-rectal carcinoma (CRC) models, PC3MM2 prostate carcinoma model, the HCT-15 multi-drug resistant (P-gp) CRC model, and the MiaPaCa2 human pancreatic model. PBS was used as a vehicle, and dosing solutions were prepared fresh daily. The dosing volume was 0.1 mL/10 g (10 mL/kg).
The length and width of each tumor were measured using an electronic caliper 2-3 times per week, and tumor weights (mg) were calculated based on the formula of [length (mm)×width (mm)^2]/2. All data, including daily observations, obtained throughout the course of the study were documented in Anti-tumor Data Acquisition System (ADAS). […] Tumor growth inhibition (TGI) was calculated as (1-T/C)×100, where T=final tumor weights from a treated group after the last dose, and C=final tumor weights from the control group after the last dose. In addition, anti-tumor efficacy was measured as the incidence of responses (or responders or regressions) defined as tumors with ≦50% of their initial size. A minimum duration of 7 days is required for a response to be considered durable.
Human mammary xenograft, MaTu cells were maintained as adherent cultures in RPMI supplemented with 10% FBS. NCr nude mice (8-12 weeks of age) were inoculated subcutaneously in the right flank with 5×10^6 cells in 0.1 mL of 80% matrigel/20% HBSS. When tumors reached an average size of ˜180 mg (7 days), treatment was initiated. […] Control mice were treated with PBS or an un-conjugated monoclonal antibody at a dose of 10 mg/kg.
Daily examinations into the health status of each animal were conducted. Each experimental group consisted of 10 mice, and the dosing volume was 0.1 mL/10 g body weight. The length and width of each tumor was measured by using an electronic caliper 2-3 times per week, and tumor weights (mg) were calculated based on the formula of [length (mm)×width (mm)^2]/2. All data, including daily observations, obtained throughout the course of the study were documented. Tumor growth inhibition (TGI) was calculated as 1−T/C×100, where T=final tumor weights from a treated group, and C=final tumor weights from the control group.

[3] = test system: HT-29 human CRC xenograft; test: HT-29 subcutaneous xenograft model; format: in vivo, athymic NCr (nu/nu) mice; conditions: for TGI: end of dosing
Method: When tumors reached an average size of ˜120 mg (5 days), treatment was initiated. […] In addition, MMAE was assessed as a free drug at a dose of 0.1, 0.2 and 1 mg/kg. The 0.1 and 0.2 mg/Kg doses of MMAE represent equivalent amounts of this drug to those present on 5 and 10 mg/Kg 3ee9/MMAE respectively.
Anti-tumor effect of 3ee9/MMAE was also assessed in varying schedules, i.e., once a week dosing for total of two doses (Q7Dx2, FIG. 20) and a single dose at the time of staging (Q1Dx1, FIG. 21). In both schedules, 3ee9/MMAE was dosed at 0.625, 1.25, 2.5, 5 and 10 mg/kg.

## 3ee9/MMAE: human anti-MN IgG1 antibody 3ee9 conjugated to Monomethylauristatin E (MMAE)
[1]
  binding to CA5: Binding to mitochondria-associated CA5 was observed
[2]; 60 mg/kg i.v. Q4Dx3
  body weight loss: ~20%
  lethality: 10%
[2]; MaTu tumor-bearing mice, i.v. Q4Dx3
  maximum tolerated dose (MTD): 60 mg/kg
[2]; MaTu xenograft
  therapeutic index (MTD divided by MED): ~96
[2]; MaTu, 0.625 mg/kg Q4Dx3
  tumor regression: No tumor regression
[2]; MaTu, 0.625 mg/kg Q4Dx3, end of dosing
  inhibition of tumor growth: 62%
[2]; MaTu, 1 mg/kg Q4Dx3
  time tumors remained stable after cessation of treatment: ~2 weeks
  tumors responsive to treatment: 30%
[2]; MaTu, 1 mg/kg i.v. Q4Dx3, end of dosing
  TGI: 67%
[2]; MaTu, 1.25 mg/kg Q4Dx3
  animals exhibiting tumor regressions: 80%
[2]; MaTu, 1.25 mg/kg Q4Dx3, end of dosing
  inhibition of tumor growth: 81%
[2]; MaTu, 2.5 mg/kg and higher Q4Dx3
  animals responded to treatment: 100%
[2]; MaTu, 3 mg/kg i.v. Q4Dx3, end of dosing
  TGI: 72%
[2]; MaTu, 3 mg/kg
  tumors showing signs of re-growth: 3 tumors
  animals remained tumor-free: 70%
[2]; MaTu, 10 mg/kg i.v. Q4Dx3, end of dosing
  TGI: 78%
[2]; MaTu, 10 mg/kg
  tumors showing signs of re-growth: 1 tumors
  animals remained tumor-free: 90%
[2]; MaTu, 1, 3 and 10 mg/kg i.v. Q4Dx3
  tolerability: well-tolerated at all doses examined
[2]; MaTu, 2.5, 5, 10, 30 and 60 mg/kg Q4Dx3
  inhibition of tumor growth: ~90%
[2]; MaTu, 3 and 10 mg/kg Q4Dx3
  animals responded: 100%
[2]; MaTu, i.v. Q4Dx3
  minimum efficacious dose (MED): 0.625 mg/kg
[2]; Table 4 profile
  In vivo activity: MED: 1 mg/kg
  In vivo activity: MTD: 60 mg/kg
[2]; all other treatment groups (0.625 to 30 mg/kg) Q4Dx3
  tolerability: well tolerated
[3]; HT-29, 0.625 mg/kg Q4Dx3
  TGI: 54%
[3]; HT-29, 0.625 mg/kg, Q1D × 1
  % Inhibition (1-T/D)*100 (Day 18): 42%
  Percent Regressions: 0%
[3]; HT-29, 0.625 mg/kg, Q4D × 3
  % Inhibition (1-T/D)*100 (Day 18): 54%
  Percent Regressions: 0%
[3]; HT-29, 0.625 mg/kg, Q7D × 2
  % Inhibition (1-T/D)*100 (Day 18): 48%
  Percent Regressions: 0%
[3]; HT-29, 1.25 mg/kg Q4Dx3
  animals showing regressions: 20%
  TGI: 72%
[3]; HT-29, 1.25 mg/kg, Q1D × 1
  % Inhibition (1-T/D)*100 (Day 18): 48%
  Percent Regressions: 0%
[3]; HT-29, 1.25 mg/kg, Q4D × 3
  % Inhibition (1-T/D)*100 (Day 18): 72%
  Percent Regressions: 2%
[3]; HT-29, 1.25 mg/kg, Q7D × 2
  % Inhibition (1-T/D)*100 (Day 18): 71%
  Percent Regressions: 0%
[3]; HT-29, 2.5 mg/kg Q4Dx3
  regressions: 90%
  TGI: 97%
[3]; HT-29, 2.5 mg/kg, Q1D × 1
  % Inhibition (1-T/D)*100 (Day 18): 93%
  Percent Regressions: 5%
[3]; HT-29, 2.5 mg/kg, Q4D × 3
  % Inhibition (1-T/D)*100 (Day 18): 97%
  Percent Regressions: 9%
[3]; HT-29, 2.5 mg/kg, Q7D × 2
  % Inhibition (1-T/D)*100 (Day 18): 92%
[3]; HT-29, 5 mg/kg Q4Dx3
  TGI: 100%
[3]; HT-29, 5 mg/kg, Q1D × 1
  % Inhibition (1-T/D)*100 (Day 18): 98%
  Percent Regressions: 8%
[3]; HT-29, 5 mg/kg, Q4D × 3
  % Inhibition (1-T/D)*100 (Day 18): 100%
  Percent Regressions: 10%
[3]; HT-29, 5 mg/kg, Q7D × 2
  % Inhibition (1-T/D)*100 (Day 18): 96%
  Percent Regressions: 7%
[3]; HT-29, 10 mg/kg Q4Dx3
  TGI: 100%
[3]; HT-29, 10 mg/kg, Q1D × 1
  % Inhibition (1-T/D)*100 (Day 18): 100%
  Percent Regressions: 10%
[3]; HT-29, 10 mg/kg, Q4D × 3
  % Inhibition (1-T/D)*100 (Day 18): 100%
  Percent Regressions: 10%
[3]; HT-29, 10 mg/kg, Q7D × 2
  % Inhibition (1-T/D)*100 (Day 18): 100%
  Percent Regressions: 10%
[3]; HT-29, 0.625 to 10 mg/kg i.v. Q4Dx3
  tolerability: well tolerated at all doses examined
[3]; HT-29, 5 and 10 mg/kg Q4Dx3
  responses: 100%
[3]; HT-29, Q7Dx2 and Q1Dx1, 0.625 to 10 mg/kg
  anti-tumor effect in varying schedules: highly effective in inhibiting the growth
[3]; HT-29 human colo-rectal cancer xenograft model
  anti-tumor effects: anti-tumor effects were seen

Reference: US20120301468A1, “ANTI-MN ANTIBODIES AND METHODS OF USING SAME” (BAYER HEALTHCARE LLC, priority 2005, published 2012)
